One assay concerns the target PD-1/PD-L1 (Homo sapiens, UniProt Q9NZQ7). The assay is described as follows: PD-1/PD-L1 biochemical protein-protein interaction assay (ALPHA). It counts as binding. As to conditions: 0.3 nM His tagged PD-L1, 2.5 nM biotinylated Fc-PD-1, 60 minutes at 25° C., read-out: IC50 PD-L1-PD-1 Alpha IC50-mono PD-L1-fcP-D1. The procedure, abridged: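 ALPHA bead proximity assay of extracellular domains: 0.3 nM His-PD-L1 with 2.5 nM biotinylated Fc-PD-1 in 25 mM Hepes pH 7.4, 150 mM NaCl, 3.4 mM EDTA, 0.005% Tween 20, 0.01% BSA, 60 min at 25 °C. Anti-His acceptor and streptavidin donor beads added; IC50 from four-parameter fit of signal loss.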

For a further assay, the target named is T1, PD-L1 (Homo sapiens, UniProt Q9NZQ7).
T1 construct: determine if they can specifically dimerize the extracellular domains of PD-L1
Briefly: PD-L1/PD-L1 dimerization biochemical protein-protein interaction assay (ALPHA). It counts as binding. As to conditions: compound-induced PD-L1 dimerization, head prints '1 nM' (0.5 nM His-tagged PD-L1 and 0.5 nM FLAG-tagged PD-L1), read-out: AC50 PDL1 Dimer Alpha 1 nM. The procedure, abridged:
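ALPHA proximity assay of compound-induced dimerization of 0.5 nM His-tagged and 0.5 nM FLAG-tagged PD-L1 extracellular domains in Hepes pH 7.4 buffer, 2 h at 25 °C. Anti-His acceptor then anti-FLAG donor beads, 60 min each; AC50 from four-parameter fit.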

The target in another assay is T2, PD-1/PD-L1 interaction (Homo sapiens, UniProt Q9NZQ7).
T2 construct: expressed in transfected cells; host or cells: CHO cells (aAPC-PD-L1) co-cultured with Jurkat cells overexpressing PD-1 and an NFAT-luciferase reporter
Briefly: PD-1/PD-L1 NFAT reporter co-culture assay. It counts as cell-based. The conditions noted are these: Jurkat PD-1 NFAT-luciferase cells co-cultured with aAPC-PD-L1 CHO cells, 6 hrs at 37° C.; read-out: EC50 NFAT Luciferase. The procedure, abridged:
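Jurkat cells overexpressing PD-1 with NFAT-driven luciferase were mixed with compound in RPMI 1640/2% FBS and seeded onto overnight-plated CHO aAPC-PD-L1 cells expressing surface anti-CD3 and PD-L1. Co-culture ran 6 h at 37 °C; luminescence read with ONE-Glo; EC50 from four-parameter fit.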

T2 sequence (Q9NZQ7 19-290): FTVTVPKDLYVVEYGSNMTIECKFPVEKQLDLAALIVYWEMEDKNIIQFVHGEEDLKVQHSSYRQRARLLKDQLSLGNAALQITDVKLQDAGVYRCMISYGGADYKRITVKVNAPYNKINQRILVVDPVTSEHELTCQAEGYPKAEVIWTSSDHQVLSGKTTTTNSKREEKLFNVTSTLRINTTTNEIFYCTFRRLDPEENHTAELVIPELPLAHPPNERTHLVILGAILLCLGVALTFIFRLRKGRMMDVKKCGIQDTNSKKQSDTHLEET
T1 sequence (Q9NZQ7 19-238 limits assumed): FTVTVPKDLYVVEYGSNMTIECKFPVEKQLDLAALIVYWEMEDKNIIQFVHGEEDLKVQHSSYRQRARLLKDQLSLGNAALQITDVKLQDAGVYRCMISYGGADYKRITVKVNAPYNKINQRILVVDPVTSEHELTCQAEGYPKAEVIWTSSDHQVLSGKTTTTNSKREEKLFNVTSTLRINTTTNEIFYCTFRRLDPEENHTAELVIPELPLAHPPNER
T1 sequence (Q9NZQ7 19-238 limits assumed): as above
Chain of PD-1/PD-L1 (Q9NZQ7 19-238 limits assumed): as above

Consider `C[C@@](CO)(NCc1cc(Br)c(O[C@H]2CCc3c(-c4cccc(-c5ccc(OCCNCCO)cc5)c4Cl)cccc32)nc1OCc1cncc(C#N)c1)C(=O)O` [Example 663], for which the IC50 on PD-1/PD-L1 stood at 0.064 nM. For the same compound, the AC50 on PD-L1 came out at 6.56 nM. In addition, at PD-1/PD-L1 interaction, the EC50 was determined as 118 nM.

For `CNCc1cc(Cl)c(O[C@H]2CCc3c(-c4cccc(-c5ccc(OCCN6CC[C@@H](O)C6)cc5)c4Cl)cccc32)nc1OCc1cncc(S(C)(=O)=O)c1` [Example 664], at PD-1/PD-L1, the half-maximal inhibitory concentration (IC50) was 2.6 nM. Besides, the AC50 at PD-L1 was ≥ 10000 nM. Moreover, the EC50 at PD-1/PD-L1 interaction is ≥ 50000 nM.

On to `CC(C)(NCc1cc(Cl)c(O[C@H]2CCc3c(-c4cccc(-c5ccc(OCCN6CC[C@@H](O)C6)cc5)c4Cl)cccc32)nc1OCc1cncc(S(C)(=O)=O)c1)C(=O)O` [Example 665], for which, at PD-1/PD-L1, the IC50 came to 0.064 nM. Moreover, the AC50 at PD-L1 was 16.5 nM. The EC50 at PD-1/PD-L1 interaction amounted to 150 nM.

For the compound `CS(=O)(=O)c1cncc(COc2nc(O[C@H]3CCc4c(-c5cccc(-c6ccc(OCCN7CC[C@@H](O)C7)cc6)c5Cl)cccc43)c(Cl)cc2CNC[C@@H](O)CC(=O)O)c1` [Example 666], at PD-1/PD-L1, the IC50 was determined as 0.076 nM. Besides, on PD-L1, the AC50 amounted to 22.9 nM. Also, on PD-1/PD-L1 interaction, the EC50 came to 418 nM.

For the compound `CC(C)(NCc1cc(Cl)c(O[C@H]2CCc3c(-c4cccc(-c5ccc(OCCN6CC[C@@H](O)C6)cc5)c4Cl)cccc32)nc1OCc1cncc(C#N)c1)C(=O)O` [Example 667], on PD-1/PD-L1, the IC50 was found to be 0.064 nM. On PD-L1, the AC50 was determined as 17 nM. Further, the EC50 on PD-1/PD-L1 interaction came out at 1890 nM.

For the compound `C[C@@](CO)(NCc1cc(Cl)c(O[C@H]2CCc3c(-c4cccc(-c5ccc(OCCN6CC[C@@H](O)C6)cc5)c4Cl)cccc32)nc1OCc1cncc(C#N)c1)C(=O)O` [Example 668], the IC50 on PD-1/PD-L1 worked out at 0.064 nM. On PD-L1, the AC50 was 16.5 nM. Besides, the EC50 at PD-1/PD-L1 interaction came out at 886 nM.

In the case of `C[C@@](CO)(NCc1cc(Cl)c(O[C@H]2CCc3c(-c4cccc(-c5ccc(OCCN6CC[C@@H](O)C6)cc5)c4Cl)cccc32)nc1OCc1cncc(S(C)(=O)=O)c1)C(=O)O` [Example 669], the half-inhibitory concentration (IC50) on PD-1/PD-L1 was found to be 0.064 nM. Besides, the AC50 at PD-L1 worked out at 17.2 nM. Moreover, on PD-1/PD-L1 interaction, the EC50 was found to be 637 nM.

In the case of `CN1CCCC1c1ccc(-c2cccc(-c3cccc4c3CC[C@@H]4Oc3nc(OCc4cncc(C#N)c4)c(CNCCO)cc3Cl)c2Cl)cc1` (stereo partly drawn) [Example 670], the IC50 on PD-1/PD-L1 stood at 1.74 nM. In addition, on PD-L1, the AC50 came to 74.8 nM. For the same compound, the EC50 at PD-1/PD-L1 interaction was ≥ 50000 nM.

In the case of `C[C@@](CO)(NCc1cc(Cl)c(O[C@H]2CCc3c(-c4cccc(-c5ccc(S(N)(=O)=O)cc5)c4Cl)cccc32)nc1OCc1cncc(C#N)c1)C(=O)O` [Example 671], on PD-1/PD-L1, the IC50 is 0.159 nM. The AC50 at PD-L1 was ≥ 10000 nM. The EC50 on PD-1/PD-L1 interaction was determined as 235 nM.

`CN1CCCC1c1ccc(-c2cccc(-c3cccc4c3CC[C@@H]4Oc3nc(OCc4cncc(C#N)c4)c(CNC(C)(C)C(=O)O)cc3Cl)c2Cl)cc1` (stereo partly drawn) [Example 672]: the IC50 on PD-1/PD-L1 turned out to be 0.064 nM. In addition, the AC50 on PD-L1 worked out at 24.5 nM. On PD-1/PD-L1 interaction, the EC50 was found to be 435 nM.

In the case of `C[C@@](CO)(NCc1ccc(O[C@H]2CCc3c(-c4cccc(OCCCN5CC[C@@H](O)C5)c4Cl)cccc32)nc1OCc1cncc(C#N)c1)C(=O)O` [Example 673], the IC50 on PD-1/PD-L1 was 0.154 nM. Moreover, the AC50 at PD-L1 was determined as 399 nM. For the same compound, the EC50 on PD-1/PD-L1 interaction stood at 583 nM.

Regarding `C[C@@](CO)(NCc1cc(Cl)c(O[C@H]2CCc3c(-c4cccc(-c5ccc(OCCNCCO)cc5)c4Cl)cccc32)nc1OCc1cncc(C#N)c1)C(=O)O` [Example 674], at PD-1/PD-L1, the IC50 is 0.064 nM. Moreover, the AC50 on PD-L1 is 11.3 nM. Besides, the EC50 at PD-1/PD-L1 interaction is 44 nM.

Regarding `Cc1c(-c2ccc(OCCNC[C@@H](O)CC(=O)O)cc2)cccc1-c1cccc2c1CC[C@@H]2Oc1ccc(CNC[C@@H](O)CC(=O)O)c(OCc2cncc(C#N)c2)n1` [Example 677], on PD-1/PD-L1, the IC50 was found to be 0.063 nM. Also, the AC50 at PD-L1 came out at 180 nM. The 50% effective concentration (EC50) on PD-1/PD-L1 interaction was 145 nM.

For the compound `COc1nc(O[C@H]2CCc3c(-c4cccc5c4CC[C@@H]5Oc4ccc(CNC[C@@H](O)CC(=O)O)c(OCc5cncc(C#N)c5)n4)cccc32)c(Br)cc1CNC[C@@H](O)CC(=O)O` [Example 678], on PD-1/PD-L1, the IC50 was 0.105 nM. The AC50 on PD-L1 was 254 nM. Besides, at PD-1/PD-L1 interaction, the EC50 amounted to 264 nM.

The record behind these values is US12590062B2, “PD-1/PD-L1 inhibitors” (Gilead Sciences, Inc., priority 2017, dated 2026).
